# Results published in US20210023233A1, “ANTIBODY-PEPTIDE COMPLEXES AND USES THEREOF” (priority 2018, published 2021).
# Tested on: CD20+ Daudi human lymphoma cells
# Test: Toxicity of cisplatin-loaded peptide: Daudi cell proliferation/survival after overnight treatment
# Assay type: cell-based
# Conditions: treated overnight, 100 μg/ml
# Description: FIG. 4 is a graph plotting the toxicity of cisplatin-loaded peptide. CD20+ Daudi human lymphoma cells were treated overnight with 100 μg/ml ABRAXANE® (ABX), 100 μg/ml cisplatin (CIS), 1 mg/ml rituximab (RIT), 1 mg/ml peptide only (PEP), 100 μg/ml peptide-loaded cisplatin (PEP+CIS), peptide with rituximab (PEP+RIT), or 100 μg/ml peptide-loaded cisplatin with rituximab (PEP+CIS+RIT).
# CD20+ Daudi human lymphoma cells were treated overnight with 100 μg/ml ABRAXANE® (ABX), 100 μg/ml cisplatin (CIS), 1 mg/ml rituximab (RIT), 1 mg/ml peptide (SEQ ID NO:2) only (PEP), 100 μg/ml peptide-loaded cisplatin (PEP+CIS), peptide with rituximab (PEP+RIT), or 100 μg/ml peptide-loaded cisplatin with rituximab (PEP+CIS+RIT), and cell survival was assessed (FIG. 4).
Compound,"Daudi proliferation, % of the total (control) proliferation",Toxicity to Daudi cells compared with cisplatin-containing peptide (in words)
PEP+CIS (VVLCQLCVLHEKTPVSDR),80%,
N.N.[Cl][Pt][Cl] [cisplatin],,equivalent
